Experiments:
[1] = system: Wnt signaling target genes c-Myc and axin2; experiment: Western blotting of Wnt signaling target genes in LS174T cells; format: cell-based; conditions: 24 hours
Experimental: (§1) Western blotting were performed according to previous procedures (25). Cells were split into 12-well plates. After 24 hours, compounds at indicated final concentrations were added to each well for another 24 hours unless otherwise noted. DMSO was used as a control. Cells were lysed in the appropriate volume of lysis buffer: 50 mM HEPES, 100 mM NaCl, 2 mM EDTA, 1% (v/v) glycerol, 50 mM NaF, 1 mM Na3VO4, 1% (v/v) Triton X-100, with protease inhibitors. Cell lysates were centrifuged, and supernatants were mixed with 6× protein loading buffer and boiled. The obtained samples were analyzed with standard western blotting methods with indicated antibodies.

[2] = system: LS174T colon cancer cell xenografts; experiment: In vivo antineoplastic activity and gross toxicity in LS174T xenografts
Experimental: Mouse studies were carried out with approval from the Institutional Animal Care and Use Committee of the University of Kentucky (2020-3531). All methods were performed in accordance with the relevant guidelines and regulations according to protocols. […] After tumors were established, mice were randomized according to tumor volume and divided into groups for treatments (five mice in each group, two tumors on each mouse).
The in vivo evaluation of ISQ-1 and BI2536 followed the approved protocol. After tumors were established, ISQ-1 was formulated in a mixture of Tween-80 (5%), DMSO (10%), PEG400 (25%) and PBS (60%) and was intraperitoneally administered to the ISQ-1 group at a daily dose of 20 mg/kg mouse body weight. The first day of treatment was set as day 0. At days 0, 4, and 7, BI2536 dissolved in 0.1 N HCl and then diluted 5-fold using 0.9% NaCl was given via gavage to the B12536 group. Mice in combination therapy group were treated with both ISQ-1 and BI2536 following aforementioned dosing schedules. At day 11 treatment was ceased and mice were sacrificed. Tumors and mouse weights were measured, and tumor volumes were calculated as Length×width^2/2.
Major biological assays were performed at least twice. Data were shown as mean SEM. For the mice study, five mice with two tumors on the lower flanks of each mouse were used in each treatment group. Sizes of the two tumors from each mouse were averaged, standardized by the tumor size on day 0, and log-transformed. ANOVA with Tukey's HSD test was used to compare the tumor size at the end of the study (day 11) between the combination therapy of ISQ-1 and B12536 and each single compound as well as the control. The equal variance assumption of ANOVA was assessed by Bartlett's test. All statistical studies were overseen in collaboration with a statistician in the University of Kentucky's Markey Cancer Center.

LS174T cells = experiment: Cell proliferation inhibition assay (5 days, cell counting); format: cell-based
Experimental: (§2) Cell proliferation inhibition assays were done following a previous report (32). Cancer cells were seeded into 24-well plates at a density of 20,000 cells per well in 1 mL of culture medium and were cultured overnight at 37° C. Compounds and the vehicle control (DMSO) were added to the cells. After 5 days, the medium was removed, and 100 μL of trypsin was added. The cells were resuspended in phosphate-buffered saline (PBS) and were counted by Vi-CELL XR 2.03 (Beckman Coulter, Inc. USA). The ratio R of the number of viable cells in the compound treatment group to the number of viable cells in DMSO treatment group was taken as relative growth, and the percentage growth inhibition was calculated as (1−R)*100.

[3] = system: prostate cancer cell line PC-3; experiment: Cell proliferation inhibition assay; format: cell-based; conditions: PC-3, 5 days (FIG. 1B)
Experimental: as §2

[4] = system: liver cancer cell line HepG2; experiment: Cell proliferation inhibition assay; format: cell-based; conditions: HepG2, 5 days (FIG. 1B)
Experimental: as §2

[5] = system: sarcoma cell line SK-LMS-1; experiment: Cell proliferation inhibition assay; format: cell-based; conditions: SK-LMS-1, 5 days (FIG. 1B)
Experimental: as §2

Solubility comparison = format: physicochemical; conditions: relative comparison
TOPFlash Wnt reporter = TOPFlash Wnt reporter assay in stable HEK293T cells; format: cell-based; conditions: 24 hours treatment
Experimental: Wnt reporter assay was described previously (25). We subcloned Super 8×TOPFlash (provided by Professor Randall Moon, University of Washington) into the pGL4.83 [hRlucP/Puro] Vector and transfected it into HEK293T cells. A stable HEK293T cell line containing the TOPFlash reporter was established using puromycin selection (25). To assess if compounds of interest blocked the downstream signaling transduction pathway of β-catenin, the stable reporter cells were seeded to a 12-well plate and treated with 25 mM LiCl to stabilize β-catenin for 16 hours to activate Wnt signaling and then candidate compounds at predetermined concentrations for another 24 hours. The cells were lysed and centrifuged to obtain supernatants which were analyzed by FB 12 Single Tube Luminometer by Titertek-Berthold (Berthold Detection Systems GmbH, Elsässerstr, Germany).

[6] = system: mitochondrial ETC (electron transport chain); experiment: Seahorse assay (OCR) in LS174T cells; format: cell-based
Experimental: (§3) Seahorse assays were carried out following a published procedure (25). Briefly, 2.5×10^4 cells in 80 μL of medium were seeded in XF96 Cell Culture microplate for all experiments. On the next day, cell culture media were replaced with Seahorse XF modified media. Cells were treated with 1 μM of oligomycin A, 1.0 μM FCCP and mixture of 1.0 μM of rotenone and 1.0 μM of antimycin A in standard mitochondrial stress test conditions. To determine the uncoupler effects, FCCP was replaced with an equal volume of DMSO, or a compound to be tested in DMSO solution.

AMPK = AMPK signaling (western blotting) in Beas-2B cells; format: cell-based; conditions: compared with CRC cells
Experimental: as §1

Plk1 = experiment: Western blotting of cell signaling pathways in LS174T cells; format: cell-based; conditions: LS174T colon cancer cells, 24 hours
Experimental: as §1

[7] = system: mitochondrial ETC (electron transport chain); experiment: Seahorse assay (OCR) in Beas-2B cells; format: cell-based
Experimental: as §3

## CN(C)c1ccc2cc(-c3cn(C)c4ccccc34)c(N)nc2c1 [ISQ-1, N^7,N^7-Dimethyl-3-(1-methyl-1H-indol-3-yl)quinoline-2,7-diamine]
[1]
  effect on Wnt signaling target genes c-Myc and axin2: inhibited
[2]; nude mice, ISQ-1 20 mg/kg daily i.p., BI2536 30 mg/kg twice a week by gavage, day 11
  tumor growth of LS174T xenografts: inhibited tumor growth but did not induce tumor regression
[2]; same dosing as efficacy study
  gross toxicities on the basis of mouse weight measurements: No gross toxicities
LS174T cells; 500 nM
  percentage inhibition of LS174T cell proliferation at 500 nM, compared among ISQs (FIG. 2B): more active
LS174T cells; Homo sapiens, LS174T, 120 h, 62 nM, 5 days
  inhibition at 0.062 µM: 16 ± 2%
LS174T cells; Homo sapiens, LS174T, 120 h, 125 nM, 5 days
  inhibition at 0.125 µM: 22 ± 5%
LS174T cells; Homo sapiens, LS174T, 120 h, 250 nM, 5 days
  inhibition at 0.25 µM: 38 ± 2.2%
LS174T cells; Homo sapiens, LS174T, 120 h, 500 nM, 5 days
  inhibition at 0.5 µM: 91 ± 4.3%
LS174T cells; Homo sapiens, LS174T, read-out: Inhibition % on LS174T cells Proliferation 0.3 uM Inhib. %
  inhibition at 0.3 µM: 83.9%
LS174T cells; Homo sapiens, LS174T, read-out: Inhibition % on LS174T cells Proliferation 1 uM Inhib. %
  inhibition at 1 µM: 92.7%
LS174T cells; Homo sapiens, LS174T, read-out: Inhibition % on LS174T cells Proliferation 3 uM Inhib. %
  inhibition at 3 µM: 99.3%
LS174T cells; LS174T, 5 days (FIG. 1B)
  inhibited in vitro cell growth: nanomolar concentrations
[3]
  inhibited in vitro cell growth: nanomolar concentrations
[4]
  inhibited in vitro cell growth: nanomolar concentrations
[5]
  inhibited in vitro cell growth: nanomolar concentrations
Solubility comparison
  solubility: better than that of ISQ-7
TOPFlash Wnt reporter
  TOPFlash Wnt reporter luciferase luminescence: inhibited TOPFlash Wnt reporter
[6]
  ETC complex V inhibition (oligomycin replaced with compound): did not inhibit ETC complex V
AMPK
  AMPK signaling activation: less effective in activating AMPK signaling
Plk1
  Plk1 expression upon drug treatment: induced
[7]
  ETC complex V inhibition (oligomycin replaced with compound): did not inhibit ETC complex V
  uncoupler effect (FCCP replaced with compound): no uncouplers

Source: US12630532B2, “Indole-substituted quinolines and their combination with Plk1 inhibitors for the treatment of cancer” (UNIVERSITY OF KENTUCKY RESEARCH FOUNDATION, priority 2021, dated 2026)
